The source of these data is PubChem BioAssay AID248 (DTP/NCI, 2004).

Where “and” joins values, the source holds several entries; their conditions need not be identical. Equal entries are not always repeated. Toxic doses and inconclusive results are not listed.

This experiment concerns L1210 leukemia ip in BDF1 mice, survival T/C. Kind of experiment: NCI In Vivo Anticancer Drug Screen. Data for tumor model L1210 Leukemia (intraperitoneal) in B6D2F1 (BDF1) mice. The conditions noted are these: endpoint: mean survival time, higher = longer survival. The method, boiled down:
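Mice bearing the transplanted tumor received compound or vehicle. Survival of the treated group was divided by that of the vehicle-treated control group to give the ratio.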

Setting [1] is: dose: 100.0 mg/kg/injection, schedule: Q01DX001 (ip), vehicle: saline with Tween-80.
[2] abbreviates: dose: 150.0 mg/kg/injection, schedule: Q01DX001 (ip), vehicle: saline.
Setting [3] is: dose: 100.0 mg/kg/injection, schedule: Q04DX003 (ip), vehicle: saline with Tween-80.
The mark [4] stands for this setting: dose: 200.0 mg/kg/injection, schedule: Q04DX003 (ip), vehicle: saline with Tween-80.
Where [5] appears, read: dose: 400.0 mg/kg/injection, schedule: Q04DX003 (ip), vehicle: saline with Tween-80.
Where [6] appears, read: dose: 100.0 mg/kg/injection, schedule: Q01DX009 (ip), vehicle: Klucel (hydroxypropylcellulose) (HPC).
[7] abbreviates: dose: 200.0 mg/kg/injection, schedule: Q01DX009 (ip), vehicle: Klucel (hydroxypropylcellulose) (HPC).
Where [8] appears, read: dose: 400.0 mg/kg/injection, schedule: Q01DX009 (ip), vehicle: Klucel (hydroxypropylcellulose) (HPC).
The mark [9] stands for this setting: dose: 50.0 mg/kg/injection, schedule: Q01DX009 (ip), vehicle: saline with Tween-80.

For `CSc1ncc(Br)c(Sc2nc(N)nc3nc[nH]c23)n1`, the T/C by setting is: (dose: 0.25 mg/kg/injection, schedule: Q01DX Z (ip), vehicle: other) 107 % of control; (dose: 0.5 mg/kg/injection, schedule: Q01DX Z (ip), vehicle: other) 103 % of control; (dose: 1.0 mg/kg/injection, schedule: Q01DX Z (ip), vehicle: methylcellulose (MC)) 98 % of control; (dose: 1.0 mg/kg/injection, schedule: Q01DX Z (ip), vehicle: other) 103 % of control; (dose: 3.0 mg/kg/injection, schedule: Q01DX Z (ip), vehicle: carboxymethylcellulose (CMC)) 121 % of control; (dose: 3.0 mg/kg/injection, schedule: Q01DX Z (ip), vehicle: methylcellulose (MC)) 97 % of control. The T/C (dose: 6.0 mg/kg/injection, schedule: Q01DX Z (ip), vehicle: methylcellulose (MC)) is 107 % of control; the T/C (dose: 10.0 mg/kg/injection, schedule: Q01DX001 (ip), vehicle: saline with Tween-80) was 156 % of control; the T/C (dose: 12.0 mg/kg/injection, schedule: Q01DX001 (ip), vehicle: saline with Tween-80) is 190 % of control; the T/C (dose: 12.0 mg/kg/injection, schedule: Q01DX Z (ip), vehicle: carboxymethylcellulose (CMC)) was 158 % of control; the T/C (dose: 14.0 mg/kg/injection, schedule: Q01DX001 (ip), vehicle: saline with Tween-80) was 200 % of control; the T/C (dose: 19.0 mg/kg/injection, schedule: Q01DX001 (ip), vehicle: saline with Tween-80) is 162 % of control. Further, the T/C (dose: 29.0 mg/kg/injection, schedule: Q01DX001 (ip), vehicle: saline) is 244 % of control; the T/C (dose: 30.0 mg/kg/injection, schedule: Q01DX001 (ip), vehicle: saline with Tween-80) was 162 % of control; the T/C (dose: 32.0 mg/kg/injection, schedule: Q01DX Z (ip), vehicle: other) is 96 % of control; the T/C (dose: 33.5 mg/kg/injection, schedule: Q01DX Z (ip), vehicle: carboxymethylcellulose (CMC)) is 107 % of control; the T/C (dose: 44.0 mg/kg/injection, schedule: Q01DX001 (ip), vehicle: saline with Tween-80) was 164 % of control; the T/C (dose: 45.0 mg/kg/injection, schedule: Q01DX001 (ip), vehicle: saline) is 236 % of control. In addition, the T/C is, setting by setting: (dose: 48.0 mg/kg/injection, schedule: Q01DX Z (ip), vehicle: carboxymethylcellulose (CMC)) 103 % of control; (dose: 50.0 mg/kg/injection, schedule: Q01DX001 (ip), vehicle: carboxymethylcellulose (CMC)) 158 % of control; (dose: 66.0 mg/kg/injection, schedule: Q01DX001 (ip), vehicle: saline) 101 % of control; under setting [1], 104 % of control; (dose: 100.0 mg/kg/injection, schedule: Q01DX Z (ip), vehicle: methylcellulose (MC)) 91 % of control; (dose: 150.0 mg/kg/injection, schedule: Q01DX001 (ip), vehicle: saline with Tween-80) 120 % of control. Besides, the T/C reads like this: under setting [2], 105 % of control; (dose: 200.0 mg/kg/injection, schedule: Q01DX001 (ip), vehicle: carboxymethylcellulose (CMC)) 103 % of control; (dose: 200.0 mg/kg/injection, schedule: Q01DX001 (ip), vehicle: saline) 122 % of control; (dose: 400.0 mg/kg/injection, schedule: Q01DX001 (ip), vehicle: carboxymethylcellulose (CMC)) 94 % of control; (dose: 400.0 mg/kg/injection, schedule: Q01DX001 (ip), vehicle: saline) 99 % of control.
`O=C1OCCN1/N=C\c1ccccc1`: the T/C is, setting by setting: (dose: 100.0 mg/kg/injection, schedule: Q01DX009 (ip), vehicle: other) 116 % of control; (dose: 200.0 mg/kg/injection, schedule: Q01DX009 (ip), vehicle: other) 98 % of control; (dose: 400.0 mg/kg/injection, schedule: Q01DX009 (ip), vehicle: other) 97 % of control.
Turning to `CCOC(=O)/C=C(C)/C=C/C1=C(C)CCCC1(C)C`, the T/C by setting is: under setting [3], 102 % of control; under setting [4], 96 % of control; under setting [5], 108 % of control.
As to `CCS(=O)CC`, the T/C reads like this: (dose: 100.0 mg/kg/injection, schedule: Q04DX002 (ip), vehicle: saline) 106 % of control; (dose: 100.0 mg/kg/injection, schedule: Q04DX003 (ip), vehicle: saline) 101 % of control and 108 % of control; (dose: 200.0 mg/kg/injection, schedule: Q04DX002 (ip), vehicle: saline) 89 % of control; (dose: 200.0 mg/kg/injection, schedule: Q04DX003 (ip), vehicle: saline) 94 % of control and 97 % of control; (dose: 400.0 mg/kg/injection, schedule: Q04DX002 (ip), vehicle: saline) 95 % of control; (dose: 400.0 mg/kg/injection, schedule: Q04DX003 (ip), vehicle: saline) 101 % of control and 104 % of control.
`CCCCN(CCCC)c1ccc(N=C(C#N)c2ccc(N(CCCC)CCCC)cc2)cc1`: the T/C was 96 % of control under setting [6], 96 % of control under setting [7] and 105 % of control under setting [8].
With `C(=N\Nc1nc2ccccc2s1)/c1ccc(/C=N/Nc2nc3ccccc3s2)cc1`, the T/C under setting [6] is 96 % of control, the T/C under setting [7] is 96 % of control and the T/C under setting [8] is 104 % of control.
In the case of `CCOC(=O)N/N=C(/C)c1ccc(C)cc1`, the T/C under setting [9] was 95 % of control and 121 % of control; the T/C under setting [1] was 103 % of control; the T/C (dose: 100.0 mg/kg/injection, schedule: Q01DX009 (ip), vehicle: saline with Tween-80) is 105 % of control and 89 % of control; the T/C (dose: 100.0 mg/kg/injection, schedule: Q04DX002 (ip), vehicle: saline with Tween-80) was 95 % of control and 104 % of control; the T/C under setting [3] was 97 % of control; the T/C (dose: 200.0 mg/kg/injection, schedule: Q01DX001 (ip), vehicle: saline with Tween-80) is 101 % of control. Besides, the T/C (dose: 200.0 mg/kg/injection, schedule: Q01DX009 (ip), vehicle: saline with Tween-80) is 101 % of control and 110 % of control; the T/C (dose: 200.0 mg/kg/injection, schedule: Q04DX002 (ip), vehicle: saline with Tween-80) is 101 % of control and 110 % of control; the T/C under setting [4] is 97 % of control; the T/C (dose: 400.0 mg/kg/injection, schedule: Q01DX001 (ip), vehicle: saline with Tween-80) was 102 % of control; the T/C under setting [5] is 110 % of control.
`O=C(CCN1CCOCC1)c1ccccc1`: the T/C (dose: 75.0 mg/kg/injection, schedule: Q01DX001 (ip), vehicle: saline) was 94 % of control; the T/C under setting [2] was 89 % of control; the T/C (dose: 300.0 mg/kg/injection, schedule: Q01DX001 (ip), vehicle: saline) was 92 % of control.
Regarding `Cc1ccc(C(=O)CCl)c(C)c1`, the T/C was 95 % of control (dose: 12.5 mg/kg/injection, schedule: Q01DX009 (ip), vehicle: saline with Tween-80); 100 % of control (dose: 25.0 mg/kg/injection, schedule: Q01DX009 (ip), vehicle: saline with Tween-80); 103 % of control under setting [9].
With `COc1c(NC(=O)c2ccccc2Cl)cccc1[N+](=O)[O-]`, the T/C (dose: 25.0 mg/kg/injection, schedule: Q01DX009 (ip), vehicle: Klucel (hydroxypropylcellulose) (HPC)) was 100 % of control; the T/C (dose: 50.0 mg/kg/injection, schedule: Q01DX009 (ip), vehicle: Klucel (hydroxypropylcellulose) (HPC)) was 88 % of control; the T/C under setting [6] is 91 % of control and 92 % of control.
